From ChEMBL document CHEMBL4418480, “Methods and compositions for modulating rho-mediated gene transcription” (2012)
The source made the active and inactive calls. The rule behind the calls is not given here.

Assays:
PC-3 [1] = experiment: Cytotoxicity against human PC3 cells assessed as inhibition of cell cell viability at 100 uM incubated for 19 hrs by WST1 based assay relative to control; assay type: functional; conditions: for inhibition at 100 µM: PC-3, 19 h
PC-3 [2] = experiment: Cytotoxicity against human PC3 cells assessed as inhibition of cell cell viability at 10 uM incubated for 19 hrs by WST1 based assay relative to control; assay type: functional; conditions: for inhibition at 10 µM: PC-3, 19 h
Homo sapiens [3] = species: Homo sapiens; experiment: Inhibition of rho-mediated gene transcription in human PC3 cells transfected with Galpha12QL activator at 10 uM incubated for 19 hrs by SRE.L-firefly luciferase based dual luciferase reporter gene assay relative to control; assay type: cell-based
Homo sapiens [4] = species: Homo sapiens; experiment: Inhibition of rho-mediated gene transcription in human PC3 cells transfected with Galpha12QL activator at 100 uM incubated for 19 hrs by SRE.L-firefly luciferase based dual luciferase reporter gene assay relative to control; assay type: cell-based
[5] = Inhibition of rho-mediated gene transcription in human PC3 cells transfected with Galpha12QL activator incubated for 19 hrs by SRE.L-firefly luciferase based dual luciferase reporter gene assay; assay type: cell-based; conditions: PC-3, 19 h
[6] = Inhibition of nonspecific gene transcription in human PC3 cells transfected with Galpha12QL activator at 10 uM incubated for 19 hrs by PRL-TK luciferase based dual luciferase reporter gene assay; assay type: cell-based, PC-3
[7] = Inhibition of nonspecific gene transcription in human PC3 cells transfected with Galpha12QL activator at 100 uM incubated for 19 hrs by PRL-TK luciferase based dual luciferase reporter gene assay; assay type: cell-based, PC-3
SK-OV-3 = experiment: Antiinvasive activity against human SKOV3 cells assessed as inhibition of LPA-stimulated cell invasion at 100 ng/ml by matrigel based assay; assay type: functional
PC-3 [8] = experiment: Antiinvasive activity against human PC3 cells assessed as inhibition of LPA-stimulated cell invasion at 3 umol/L by matrigel based assay; assay type: functional
A-375 = experiment: Antiproliferative activity against human A375 cells assessed as inhibition of LPA-stimulated cell proliferation at 0.3 mmol/L and measured on day 8 by WST1 based assay; assay type: functional
WI-38 = experiment: Antiproliferative activity against human WI38 cells assessed as inhibition of LPA-stimulated cell proliferation at 0.3 mmol/L and measured on day 8 by WST1 based assay; conditions: wi-38, 300 µM
SK-MEL-28 = experiment: Antiproliferative activity against human SK-MEL-28 cells assessed as inhibition of LPA-stimulated cell proliferation at 0.3 mmol/L and measured on day 8 by WST1 based assay; assay type: functional
PC-3 [9] = experiment: Antiproliferative activity against human PC3 cells assessed as inhibition of LPA-stimulated cell proliferation incubated for 27 hrs by BrdUrd incorporation assay; assay type: functional, cell-based
Homo sapiens [10] = species: Homo sapiens; experiment: Antiproliferative activity against human A375M2 cells assessed as inhibition of LPA-stimulated cell proliferation at 0.3 mmol/L and measured on day 8 by WST1 based assay; assay type: functional
SK-MEL-147 = experiment: Antiproliferative activity against human SK-MEL-147 cells assessed as inhibition of LPA-stimulated cell proliferation at 0.3 mmol/L and measured on day 8 by WST1 based assay; assay type: functional

**Q.** With `O=C(CONC(=O)c1ccccc1)Nc1ccc(Cl)cc1` as the molecule, how does the inhibition (PC-3 [1]) read?
**A.** inactive

**Q.** And the inhibition (PC-3 [2])?
**A.** inactive

**Q.** And the inhibition (Homo sapiens [3])?
**A.** inactive

**Q.** What about the inhibition (Homo sapiens [4]) of the same molecule?
**A.** inactive

**Q.** What about the IC50 [5] of the same molecule?
**A.** > 100 µM

**Q.** Which inhibition at 19 h, 10 µM [6] does the source give for `O=C(CC1CCCCN1C(=O)c1cc(C(F)(F)F)cc(C(F)(F)F)c1)Nc1ccc(Cl)cc1` (configuration not stated) here?
**A.** 0%

**Q.** Which inhibition at 19 h, 10 µM [6] does the source give for `O=C(CONC(=O)c1cccc(C(F)(F)F)c1)Nc1ccc(Cl)cc1` here?
**A.** 5%

**Q.** What about the inhibition (Homo sapiens [3]) of the same molecule?
**A.** 25%

**Q.** What about the inhibition (Homo sapiens [4]) of the same molecule?
**A.** 86%

**Q.** What about the IC50 [5] of the same molecule?
**A.** 27 µM

**Q.** What about the inhibition at 19 h, 100 µM [7] of the same molecule?
**A.** 19%

**Q.** For `O=C(CONC(=O)c1cc(C(F)(F)F)cc(C(F)(F)F)c1)Nc1ccccc1`, which inhibition at 19 h, 10 µM [6] is on record?
**A.** 33%

**Q.** What about the inhibition (Homo sapiens [3]) of the same molecule?
**A.** 13%

**Q.** What about the inhibition (Homo sapiens [4]) of the same molecule?
**A.** 65%

**Q.** What about the IC50 [5] of the same molecule?
**A.** 36 µM

**Q.** What about the inhibition at 19 h, 100 µM [7] of the same molecule?
**A.** 59%

**Q.** Which results are given for `O=C(CCCCNC(=O)c1cc(C(F)(F)F)cc(C(F)(F)F)c1)Nc1ccc(Cl)cc1`?
**A.** inhibition at 19 h, 10 µM [6]: 0%; inhibition at 100 µM (PC-3 [1]): 0%; inhibition at 10 µM (PC-3 [2]): 0%; inhibition (Homo sapiens [3]): 0%; inhibition (Homo sapiens [4]): 12%; IC50 [5]: > 100 µM; inhibition at 19 h, 100 µM [7]: 10%

**Q.** For `CC(=O)O[C@H]1C(=O)[C@@]2(C)[C@H]([C@H](OC(=O)c3ccccc3)[C@]3(O)C[C@H](OC(=O)[C@H](O)[C@@H](NC(=O)c4ccccc4)c4ccccc4)C(C)=C1C3(C)C)[C@]1(OC(C)=O)CO[C@@H]1C[C@@H]2O`, which inhibition (SK-OV-3) is on record?
**A.** Active

**Q.** For `O=C(Nc1ccccc1C(=O)Nc1ccc(Cl)cc1)c1cc(C(F)(F)F)cc(C(F)(F)F)c1`, which inhibition at 19 h, 10 µM [6] is on record?
**A.** 0%

**Q.** With `O=C(CCNC(=O)c1cc(C(F)(F)F)cc(C(F)(F)F)c1)Nc1ccc(Cl)cc1` as the molecule, how does the inhibition at 100 µM (PC-3 [1]) read?
**A.** 6 to 10%

**Q.** What about the inhibition (Homo sapiens [3]) of the same molecule?
**A.** 38 to 44%

**Q.** What about the inhibition (Homo sapiens [4]) of the same molecule?
**A.** 64 to 66%

**Q.** And the IC50 [5]?
**A.** 25 to 38 µM

**Q.** What about the inhibition at 19 h, 100 µM [7] of the same molecule?
**A.** 15 to 22%

**Q.** For `CN(CCNC(=O)c1cc(C(F)(F)F)cc(C(F)(F)F)c1)C(=O)c1ccc(Cl)cc1`, which inhibition at 19 h, 10 µM [6] is on record?
**A.** 0%

**Q.** And the inhibition at 100 µM (PC-3 [1])?
**A.** 0%

**Q.** What about the inhibition at 10 µM (PC-3 [2]) of the same molecule?
**A.** 0%

**Q.** What about the inhibition (Homo sapiens [3]) of the same molecule?
**A.** 20%

**Q.** What about the inhibition (Homo sapiens [4]) of the same molecule?
**A.** 25%

**Q.** What about the IC50 [5] of the same molecule?
**A.** > 1000 µM

**Q.** And the inhibition at 19 h, 100 µM [7]?
**A.** 10%

**Q.** For `CC(ONC(=O)c1cc(C(F)(F)F)cc(C(F)(F)F)c1)C(=O)Nc1ccc(Cl)cc1` (configuration not stated), which inhibition at 19 h, 10 µM [6] is on record?
**A.** 48%

**Q.** What about the inhibition (PC-3 [8]) of the same molecule?
**A.** Active

**Q.** What about the inhibition (A-375) of the same molecule?
**A.** Active

**Q.** And the Activity (WI-38)?
**A.** Non-Toxic

**Q.** What about the inhibition (SK-MEL-28) of the same molecule?
**A.** Active

**Q.** What about the inhibition at 10 µM (PC-3 [2]) of the same molecule?
**A.** 44%

**Q.** What about the inhibition (Homo sapiens [3]) of the same molecule?
**A.** 74%

**Q.** What about the inhibition (PC-3 [9]) of the same molecule?
**A.** Active

**Q.** And the inhibition (Homo sapiens [10])?
**A.** Active

**Q.** What about the inhibition (SK-MEL-147) of the same molecule?
**A.** Active

**Q.** What does the source list for `O=C(CONC(=O)c1ccc(C(F)(F)F)cc1)Nc1ccc(Cl)cc1`?
**A.** inhibition at 19 h, 10 µM [6]: 6%; inhibition (Homo sapiens [3]): 26%; inhibition (Homo sapiens [4]): 91%; IC50 [5]: 29 µM; inhibition at 19 h, 100 µM [7]: 0%
